In US20250059220A1, “SUBSTITUTED BENZOTHIOPHENE DERIVATIVES AND METHODS OF USE THEREOF” (Merck Sharp & Dohme LLC, priority 2021, published 2025):

Tests used:
human PTPN1 (1-435) = human PTPN1 (1-435) (Homo sapiens (Human), UniProt P18031); experiment: Human PTPN1 Biochemical Assay; details: DiFMUP substrate, read-out: PTP1B IC50
Procedure, shortened: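 Read-out is DiFMUP hydrolysis fluorescence (360 nm excitation, 460 nm emission) after 1 h at room temperature, following 30 min enzyme–compound preincubation.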

human PTPN2 (1-387) = human PTPN2 (1-387) (Homo sapiens (Human), UniProt P17706); experiment: Human PTPN2 Biochemical Assay; details: DiFMUP substrate
Procedure, shortened: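 Fluorogenic DiFMUP hydrolysis (1 h, room temperature, read ex 360/em 460 nm) after 30 min compound preincubation with PTPN2 residues 1-387, in 50 mM Tris pH 7.4, 150 mM NaCl, 0.01% Tween20, 0.5 mM DTT. Effects scaled between buffer and enzyme controls, 4-parameter fit gives EC50.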

Chain of human PTPN1 (1-435) (P18031 whole entry): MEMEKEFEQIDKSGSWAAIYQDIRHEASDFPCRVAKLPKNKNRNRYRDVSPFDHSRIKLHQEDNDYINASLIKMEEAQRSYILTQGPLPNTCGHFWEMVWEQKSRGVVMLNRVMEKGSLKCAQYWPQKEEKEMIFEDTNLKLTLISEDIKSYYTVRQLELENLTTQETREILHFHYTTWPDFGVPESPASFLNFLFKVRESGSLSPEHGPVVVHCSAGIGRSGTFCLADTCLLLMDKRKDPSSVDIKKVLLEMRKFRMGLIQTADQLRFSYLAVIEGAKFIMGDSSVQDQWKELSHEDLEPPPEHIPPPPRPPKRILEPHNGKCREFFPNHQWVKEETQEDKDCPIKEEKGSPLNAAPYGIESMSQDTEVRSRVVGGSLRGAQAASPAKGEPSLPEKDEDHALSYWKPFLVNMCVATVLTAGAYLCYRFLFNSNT
Chain of human PTPN2 (1-387) (P17706 other isoform, or with tags, fused parts or gaps): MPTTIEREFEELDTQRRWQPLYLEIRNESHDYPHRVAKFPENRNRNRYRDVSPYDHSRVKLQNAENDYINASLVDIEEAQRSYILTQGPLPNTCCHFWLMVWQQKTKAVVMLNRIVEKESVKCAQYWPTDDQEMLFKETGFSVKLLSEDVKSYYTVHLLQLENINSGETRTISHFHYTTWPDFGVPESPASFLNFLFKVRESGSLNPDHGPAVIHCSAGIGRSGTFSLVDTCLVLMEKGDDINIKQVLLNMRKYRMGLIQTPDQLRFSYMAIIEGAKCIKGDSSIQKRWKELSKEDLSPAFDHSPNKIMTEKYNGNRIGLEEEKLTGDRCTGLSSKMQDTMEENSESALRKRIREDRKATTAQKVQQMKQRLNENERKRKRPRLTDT

SMILES | IC50 (human PTPN1 (1-435)) | IC50 (human PTPN2 (1-387))
Cc1[nH]cnc1CNC(=O)c1ccc2sc(C(F)(F)P(=O)(O)O)c(Br)c2c1 [Compound 217, ((3-bromo-5-(((5-methyl-1H-imidazol-4-yl)methyl)carbamoyl)benzo[b]thiophen-2-yl)difluoromethyl)phosphonic acid] | 1840 nM | 7060 nM
Nc1cc(OCCCC(F)(F)F)c2sc(C(F)(F)P(=O)(O)O)c(Br)c2c1 [Compound 259, ((5-amino-3-bromo-7-(4,4,4-trifluorobutoxy)benzo[b]thiophen-2-yl)difluoromethyl)phosphonic acid] | 180 nM | 338 nM
NS(=O)(=O)CCCOc1cc(-c2cnn[nH]2)cc2c(Br)c(C(F)(F)P(=O)(O)O)sc12 [Compound 365] | 2.5 nM | 2.5 nM
O=C(NC1(c2cccc(F)c2)CCCC1)c1ccc2sc(C(F)(F)P(=O)(O)O)c(Br)c2c1 [Compound 115] | 3620 nM | 2600 nM
CS(=O)(=O)CCCOc1cc(C(N)=O)cc2cc(C(F)(F)P(=O)(O)O)sc12 [Compound 453, ammonium ((5-carbamoyl-7-(3-(methylsulfonyl)propoxy)benzo[b]thiophen-2-yl)difluoromethyl)phosphonate] | 7860 nM | 9580 nM
CC(NC(=O)c1ccc2sc(C(F)(F)P(=O)(O)O)c(Br)c2c1)c1ccon1 (centres unmarked) [Compound 194] | 1740 nM | 3200 nM
NC(=O)c1cc(-c2cc[nH]n2)c2sc(C(F)(F)P(=O)(O)O)c(Br)c2c1 [Compound 415, ((3-bromo-5-carbamoyl-7-(1H-pyrazol-3-yl)benzo[b]thiophen-2-yl)difluoromethyl)phosphonic acid] | 3930 nM | 3840 nM
O=C(Nc1cccnc1Oc1ccccc1)c1ccc2sc(C(F)(F)P(=O)(O)O)c(Br)c2c1 [Compound 23] | 7250 nM | 9280 nM
NC(=O)c1cc(OCC(F)CC(F)(F)F)c2sc(C(F)(F)P(=O)(O)O)c(Br)c2c1 (centres unmarked) [Compound 464, ((3-bromo-5-carbamoyl-7-(2,4,4,4-tetrafluorobutoxy)benzo[b]thiophen-2-yl)difluoromethyl)phosphonic acid] | 42.6 nM | 39.7 nM
N#Cc1c(C(F)(F)P(=O)(O)O)sc2ccc(C(=O)Nc3ccccc3)cc12 [Compound 3, ((3-cyano-5-(phenylcarbamoyl)benzo[b]thiophen-2-yl)difluoromethyl)phosphonic acid] | 1130 nM | 1020 nM
N#Cc1ccc2c(C#N)c(C(F)(F)P(=O)(O)O)sc2c1 [Compound 301, ((3,6-dicyanobenzo[b]thiophen-2-yl)difluoromethyl)phosphonic acid] | 12900 nM | 17000 nM
CS(=O)(=O)c1ccc(COc2cc(C(N)=O)cc3c(Br)c(C(F)(F)P(=O)(O)O)sc23)c(Cl)c1 [Compound 387] | 35.8 nM | 15.1 nM
O=C(Nc1cccc(-n2nccn2)c1)c1ccc2sc(C(F)(F)P(=O)(O)O)c(Br)c2c1 [Compound 109] | 465 nM | 780 nM
N#CC1(c2ccc(NC(=O)c3ccc4sc(C(F)(F)P(=O)(O)O)c(Br)c4c3)cc2)CCCCC1 [Compound 21] | 1410 nM | 2140 nM
O=C(NCc1ccc[n+]([O-])c1)c1ccc2sc(C(F)(F)P(=O)(O)O)c(Br)c2c1 [Compound 134] | 2400 nM | 2880 nM
O=C(NCC(F)(F)F)c1ccc2sc(C(F)(F)P(=O)(O)O)c(Br)c2c1 [Compound 49] | 4150 nM | 5090 nM
CC(NC(=O)c1ccc2sc(C(F)(F)P(=O)(O)O)c(Br)c2c1)c1nncn1C (centres unmarked) [Compound 175] | 1420 nM | 2020 nM
Cc1cc(S(C)(=O)=O)ccc1COc1cc(C(N)=O)cc2c(Br)c(C(F)(F)P(=O)(O)O)sc12 [Compound 391] | 12.4 nM | 6.3 nM
O=C(NCCn1cccn1)c1ccc2sc(C(F)(F)P(=O)(O)O)c(Br)c2c1 [Compound 144] | 1410 nM | 7170 nM
CCc1nc(CNC(=O)c2ccc3sc(C(F)(F)P(=O)(O)O)c(Br)c3c2)no1 [Compound 195] | 2740 nM | 5540 nM
O=C(Nc1ccc(OCC2CCCO2)cc1)c1ccc2sc(C(F)(F)P(=O)(O)O)c(Br)c2c1 (centres unmarked) [Compound 26] | 1720 nM | 2340 nM
O=C(NCC1CC(F)(F)C1)c1ccc2sc(C(F)(F)P(=O)(O)O)c(Br)c2c1 [Compound 28] | 5160 nM | 6930 nM
O=C(NC1CCC(F)(F)C1)c1ccc2sc(C(F)(F)P(=O)(O)O)c(Br)c2c1 (centres unmarked) [Compound 41] | 2230 nM | 3230 nM
O=C(NCCC1CC1)c1ccc2sc(C(F)(F)P(=O)(O)O)c(Br)c2c1 [Compound 59] | 1390 nM | 550 nM
O=C(Nc1cccc(OCC2CCCO2)c1)c1ccc2sc(C(F)(F)P(=O)(O)O)c(Br)c2c1 (centres unmarked) [Compound 17] | 1460 nM | 1910 nM
COc1cccc(CNC(=O)c2ccc3sc(C(F)(F)P(=O)(O)O)c(Br)c3c2)c1OC(F)F [Compound 95] | 3900 nM | 4780 nM
N#Cc1cccc2c(Br)c(C(F)(F)P(=O)(O)O)sc12 [Compound 8, ((3-bromo-7-cyanobenzo[b]thiophen-2-yl)difluoromethyl)phosphonic acid] | 3270 nM | 3940 nM
O=P(O)(O)C(F)(F)c1sc2c(OCCCC(F)(F)F)cc(-c3nc[nH]n3)cc2c1Br [Compound 232, ((3-bromo-5-(1H-1,2,4-triazol-3-yl)-7-(4,4,4-trifluorobutoxy)benzo[b]thiophen-2-yl)difluoromethyl)phosphonic acid] | 3.4 nM | 3.06 nM

Other lines, results leading:

IC50 (human PTPN1 (1-435)) | IC50 (human PTPN2 (1-387)) | SMILES
29.9 nM | 28.1 nM | CCC(=O)CCCOc1cc(C(N)=O)cc2c(Br)c(C(F)(F)P(=O)(O)O)sc12 [Compound 332]
160 nM | 88.6 nM | NC(=O)c1cc(OCc2ccc(F)cc2C(F)(F)F)c2sc(C(F)(F)P(=O)(O)O)c(Br)c2c1 [Compound 336]
24 nM | 26.3 nM | NC(=O)c1cc(OCCC2CCCS2(=O)=O)c2sc(C(F)(F)P(=O)(O)O)c(Br)c2c1 (centres unmarked) [Compound 264, ((3-bromo-5-carbamoyl-7-(2-(1,1-dioxidotetrahydrothiophen-2-yl)ethoxy)benzo[b]thiophen-2-yl)difluoromethyl)phosphonic acid]
2.5 nM | 2.5 nM | CS(=O)(=O)CCCOc1cc(-c2nc[nH]n2)cc2c(C#N)c(C(F)(F)P(=O)(O)O)sc12 [Compound 428]
5.2 nM | 3.98 nM | CS(=O)(=O)c1ccc(COc2cc(C(N)=O)cc3c(Br)c(C(F)(F)P(=O)(O)O)sc23)cn1 [Compound 379]
38 nM | 80.7 nM | NC(=O)c1cc(OCC2C(F)(F)C23CCC3)c2sc(C(F)(F)P(=O)(O)O)c(Br)c2c1 (centres unmarked) [Compound 294]
27.6 nM | 32 nM | NC(=O)c1cc(OC[C@H]2C[C@@H](S(N)(=O)=O)C2)c2sc(C(F)(F)P(=O)(O)O)c(Br)c2c1 [Compound 382]
26.1 nM | 34.2 nM | CC1CCS(=O)(=O)C1CCOc1cc(C(N)=O)cc2c(Br)c(C(F)(F)P(=O)(O)O)sc12 (single isomer, unassigned) [Compound 394]
423 nM | 271 nM | NC(=O)c1cc(OCCOCC(F)F)c2sc(C(F)(F)P(=O)(O)O)c(Br)c2c1 [Compound 251]
2.5 nM | 16.1 nM | CNC(=O)c1cc(OCCCC(C)(F)F)c2sc(C(F)(F)P(=O)(O)O)c(Br)c2c1 [Compound 326]
12.5 nM | 12.1 nM | NC(=O)c1cc(OCCC2CCNS2(=O)=O)c2sc(C(F)(F)P(=O)(O)O)c(Br)c2c1 (single isomer, unassigned) [Compound 462]
13.7 nM | 10.2 nM | N#Cc1c(C(F)(F)P(=O)(O)O)sc2c(OCC3CC3(F)F)cc(C(N)=O)cc12 (centres unmarked) [Compound 426]
21.7 nM | 13.7 nM | NC(=O)c1cc(OCc2ccc(C(F)(F)F)c(F)c2)c2sc(C(F)(F)P(=O)(O)O)c(Br)c2c1 [Compound 357]
23.3 nM | 21.6 nM | CS(=O)(=O)CCCOc1cc(C(N)=O)cc2c(Br)c(C(F)(F)P(=O)(O)O)sc12 [Compound 270]
132 nM | 13.7 nM | C=C(C)C#Cc1cc(C(N)=O)cc2c(Br)c(C(F)(F)P(=O)(O)O)sc12 [Compound 210]
